Read-outs that look alike come from different tables or passages of the source.
Tests used:
[1] = CTC profiles (compressibility, tabletability, compactability) of rucaparib salt intra granular formulations; type: physicochemical; conditions: for formation of compacts: pure API without excipients, maleate also at 90% loading, 100 mg compacts
Text: The most relevant and broadly accepted approach to assessing compression evaluation of different formulations (and different API salts) is by measuring the interrelationships of compression stress, solid fraction, and tensile strength using a compaction simulator. These parameters are related to each other in a set of relationships referred to as compressibility, tabletability, and compactability profiles (i.e., CTC Profiles) (Tye, Sun, Amidon, J. Pharm. Sci, 94: 465-472, (2005)). Focus was on the intra granular blend rather than the final blend because nearly all of the lead formulation is processed through dry granulation; only a small portion is extra granular. Additionally, the extra granular lubrication step at small scale is not representative of downstream pilot or commercial processing and risks masking intrinsic compressibility properties. For the provided lot of each salt form, formulations were evaluated at 100%, 90%, 75%, and 60% of the final tablet formulation (this correlates to 100%, 90.68%, 75.57%, and 60.45% intra granular components). CTC profiles for each API and formulation were determined by compressing (Texture Technologies model TA.XT Plus Texture Analyzer), in triplicate, 1⁄4'' round flat-faced 100 mg compacts using a linear sawtooth strain profile at 5 mm/sec velocity to four pre-programmed peak forces encompassing roller compaction and tableting compression stress ranges (e.g., up to 240 MPa). The compacts were then evaluated for physical dimensions, weight, and hardness. […] The maximum acceptable compression stress considered within normal ranges of a commercial rotary tablet press is approximately 250 MPa. Similarly, a typical target tensile strength for tablets is 2 MPa; such tablets generally have low friability, and are suitable for downstream handling and film coating. Thus, if a given formulation can be compressed to a tensile strength of 2 MPa at a compression stress of less than 250 MPa, it is considered to have acceptable compressibility.

[2] = as stated in U.S. Pat. No. 8,754,072; compared to other salt forms; cited from earlier work
[3] = Hygroscopicity of rucaparib salts; type: physicochemical; conditions: compared to other salts of rucaparib
[4] = Drug Load 60%, Compression Stress 47.9 MPa
[5] = Drug Load 60%, Compression Stress 80.3-80.4 MPa
[6] = Drug Load 60%, Compression Stress 176.0-177.0 MPa
[7] = Drug Load 60%, Compression Stress 239.5-240.4 MPa
[8] = Drug Load 75%, Compression Stress 48.3-48.5 MPa
[9] = Drug Load 75%, Compression Stress 80.5-80.8 MPa
[10] = Drug Load 75%, Compression Stress 176.8-177.8 MPa
[11] = Drug Load 75%, Compression Stress 240.1-240.7 MPa

**Q.** For Rucaparib Maleate, which “tabletability, fold lower than the camsylate salt” value ([1]; 60 and 75% API loading) is on record?
**A.** Its value is 2-2.5 ×.

**Q.** And the “Tensile Strength” value [1, 4]?
**A.** The value was 0.3 MPa.

**Q.** And the “Tensile Strength” value [1, 5]?
**A.** Its value is 0.6 MPa.

**Q.** What about the “Tensile Strength” value [1, 6] of the same molecule?
**A.** Its value is 1.2 MPa.

**Q.** And the “Tensile Strength” value [1, 7]?
**A.** Its value is 1.4 MPa.

**Q.** What about the “Tensile Strength” value [1, 8] of the same molecule?
**A.** Its value is 0.2 MPa.

**Q.** What about the “Tensile Strength” value [1, 9] of the same molecule?
**A.** Its value is 0.4 MPa.

**Q.** What about the “Tensile Strength” value [1, 10] of the same molecule?
**A.** Its value is 0.8 MPa.

**Q.** What about the “Tensile Strength” value [1, 11] of the same molecule?
**A.** Its value is 0.8 MPa.

**Q.** What about the “drug loading needed to obtain tablets with sufficient strength” value ([1]; estimated, target >70%) of the same molecule?
**A.** The value was < 50%.

**Q.** What about the formation of compacts [1] of the same molecule?
**A.** The formation of compacts was “not able to be formed”.

**Q.** And the hygroscopicity [2]?
**A.** Its hygroscopicity is “less hygroscopic”.

**Q.** For `CNCc1ccc(-c2[nH]c3cc(F)cc4c3c2CCNC4=O)cc1` [Camsylate, Rucaparib Camsylate], which “Tensile Strength” value [1, 4] is on record?
**A.** The value was 0.6 MPa.

**Q.** What about the “Tensile Strength” value [1, 5] of the same molecule?
**A.** The value was 1.3 MPa.

**Q.** And the “Tensile Strength” value [1, 6]?
**A.** Its value is 2.6 MPa.

**Q.** What about the “Tensile Strength” value [1, 7] of the same molecule?
**A.** Its value is 3.1 MPa.

**Q.** And the “Tensile Strength” value [1, 8]?
**A.** The value was 0.6 MPa.

**Q.** What about the “Tensile Strength” value [1, 9] of the same molecule?
**A.** The value was 1.1 MPa.

**Q.** And the “Tensile Strength” value [1, 10]?
**A.** Its value is 2.3 MPa.

**Q.** And the “Tensile Strength” value [1, 11]?
**A.** Its value is 2.8 MPa.

**Q.** And the formation of compacts [1]?
**A.** Its formation of compacts is “formed good compacts”.

**Q.** What about the hygroscopicity [3] of the same molecule?
**A.** The hygroscopicity was “low hygroscopicity”.

**Q.** What about the hygroscopicity [2] of the same molecule?
**A.** Its hygroscopicity is “less hygroscopic”.
